Data published in patent publication US20220280679A1, “Prophylactic Gel Compositions and Use as Barriers to Bacterial and Viral Colonization” (Innovation Chemical and Enviromental Technologies, Inc., priority 2021, published 2022).
Where two headings read alike, the source gives them in different places.

What was measured:
Assay type in all cases: cell-based
[1] = system: tissue explants; assay: MTT biocompatibility assay, relative viability of tissue explants
Protocol: Biocompatibility assays were performed by PerfectUs Biomed group (formerly Extherid) on the samples of IC-2B2 samples from Example 2, Table 2B.2
MTT assays returns relative viability of tissue through calorimetric analysis. Results are reported as percent viability compared to the non-irritative PBS control, which represents 100% viability for each of the four test conditions.
Because 100% viability for each trial is represented by the colorimetric average of the 3 explants treated with PBS. viability greater than 100% indicates UT20 formulations impart cytoprotective effects compared to the neutral PBS control.

[2] = system: human bladder tissue explants; assay: Preliminary histology score, ex-vivo human bladder tissue (HBT)
Source text: (§1) Active compositions are compared against a commercial control (UT20 58-164-4), a non-irritative control (PBS, phosphate buffered saline), a mild irritant control (1% TX-100, Triton X-100 surfactant).
(§2) The histology reflects a combination of the limits of each tissue models in addition to the reaction to variously added agents. SDS is clearly toxic to the tissue models and the addition of TX100 to the porcine vaginal mucosa removed the ability to assess unambiguously the effect of LPS with a surface active agent such as TX100.

[3] = system: porcine vaginal mucosa; assay: Preliminary histology score, porcine tissue (PMM)
Source text: as §1, §2

[4] = system: porcine nasal tissue; assay: Histology scoring on porcine nasal mucosa
Protocol: A panel of controls for preliminary model development was assessed for biocompatibility properties on Porcine nasal tissue via MTT, and ELISA Assays.
In Table 16, histology scoring of NS A (166A) and NS B (166B) type compositions on porcine nasal mucosa. Sample 165B is a commercial control. It is of some interest that the treatments appear to result in a reduced response with or without the addition of LPS. The detergents SDS and TX100 produce a maximal response while the LPS produces a range of responses. […] The blinded participation of the Histology expert lends additional strength to the data.

| Compound | tissue viability (MTT), irritant controls [1] | HBT Qualitative Score (histology) [2] | PMM Qualitative Score (histology) [3] | Ordinal score (histology) [4] | tissue viability (MTT), irritant controls ([1]; all test conditions) | histology observation, bladder sections [2] | histology observation, porcine vaginal mucosa ([3]; LPS combined with TX100) | Ordinal score (histology) ([4]; control agent alone) | histology observation, bladder sections ([2]; with addition of LPS) |
| --- | --- | --- | --- | --- | --- | --- | --- | --- | --- |
| CCCCCCCCCCCCOS(=O)(=O)[O-].[Na+] [SDS] | decreases in tissue viability | 4+ | 4+ | 4 |  |  |  |  |  |
| Triton X-100 [TX100] |  |  |  |  | decreases in tissue viability | mild cell loss and submucosal edema | lost normal structure entirely | 3 |  |
| lipopolysaccharide [LPS] |  |  |  |  |  |  |  | 1 | reactive damage to the bladder sections with a loss of cells on the surface of the section |
